Values quoted from earlier work, collected in patent publication US6620802B1, “Methods of treating mild cognitive impairment using a glucocorticoid-specific receptor antagonist” (Corcept Therapeutics, Inc., priority 1999, dated 2003).

How the values were obtained:
[1] = biological target: T1, progesterone receptor (Homo sapiens, UniProt P06401); conditions: literature statement
T1 sequence (P06401 1-933): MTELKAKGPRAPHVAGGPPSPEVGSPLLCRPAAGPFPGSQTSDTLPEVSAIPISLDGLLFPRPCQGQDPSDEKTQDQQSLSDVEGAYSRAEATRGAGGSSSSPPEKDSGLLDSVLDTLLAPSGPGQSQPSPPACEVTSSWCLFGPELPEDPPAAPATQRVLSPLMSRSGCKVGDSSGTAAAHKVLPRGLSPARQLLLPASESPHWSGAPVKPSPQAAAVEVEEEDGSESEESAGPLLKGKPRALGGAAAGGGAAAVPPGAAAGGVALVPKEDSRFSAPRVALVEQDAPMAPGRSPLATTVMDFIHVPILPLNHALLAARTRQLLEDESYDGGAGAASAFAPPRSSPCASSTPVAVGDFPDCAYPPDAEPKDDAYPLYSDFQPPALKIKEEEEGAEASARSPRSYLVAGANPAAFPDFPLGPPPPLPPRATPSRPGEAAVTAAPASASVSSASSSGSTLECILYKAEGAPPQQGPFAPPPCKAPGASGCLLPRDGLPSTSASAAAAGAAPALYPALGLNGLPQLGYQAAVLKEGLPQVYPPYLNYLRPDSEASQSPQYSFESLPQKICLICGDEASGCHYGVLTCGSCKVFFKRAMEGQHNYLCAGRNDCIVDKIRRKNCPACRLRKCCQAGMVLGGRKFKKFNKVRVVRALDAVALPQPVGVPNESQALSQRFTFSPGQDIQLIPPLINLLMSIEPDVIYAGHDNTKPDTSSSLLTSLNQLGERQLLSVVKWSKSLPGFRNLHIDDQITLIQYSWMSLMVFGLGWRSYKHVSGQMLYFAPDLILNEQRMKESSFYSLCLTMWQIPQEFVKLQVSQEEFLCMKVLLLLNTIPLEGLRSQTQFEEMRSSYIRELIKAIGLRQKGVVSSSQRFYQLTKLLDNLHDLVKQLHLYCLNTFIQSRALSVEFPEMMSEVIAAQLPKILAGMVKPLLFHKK

[2] = system: rat hippocampus; conditions: Talmi et al. 1996
[3] = system: mouse hippocampus neuronal cells; conditions: Behl et al. 1997
[4] = biological target: T2, glucocorticoid (GR) receptor (Homo sapiens, UniProt P04150); conditions: literature statement
T2 sequence (P04150 1-777): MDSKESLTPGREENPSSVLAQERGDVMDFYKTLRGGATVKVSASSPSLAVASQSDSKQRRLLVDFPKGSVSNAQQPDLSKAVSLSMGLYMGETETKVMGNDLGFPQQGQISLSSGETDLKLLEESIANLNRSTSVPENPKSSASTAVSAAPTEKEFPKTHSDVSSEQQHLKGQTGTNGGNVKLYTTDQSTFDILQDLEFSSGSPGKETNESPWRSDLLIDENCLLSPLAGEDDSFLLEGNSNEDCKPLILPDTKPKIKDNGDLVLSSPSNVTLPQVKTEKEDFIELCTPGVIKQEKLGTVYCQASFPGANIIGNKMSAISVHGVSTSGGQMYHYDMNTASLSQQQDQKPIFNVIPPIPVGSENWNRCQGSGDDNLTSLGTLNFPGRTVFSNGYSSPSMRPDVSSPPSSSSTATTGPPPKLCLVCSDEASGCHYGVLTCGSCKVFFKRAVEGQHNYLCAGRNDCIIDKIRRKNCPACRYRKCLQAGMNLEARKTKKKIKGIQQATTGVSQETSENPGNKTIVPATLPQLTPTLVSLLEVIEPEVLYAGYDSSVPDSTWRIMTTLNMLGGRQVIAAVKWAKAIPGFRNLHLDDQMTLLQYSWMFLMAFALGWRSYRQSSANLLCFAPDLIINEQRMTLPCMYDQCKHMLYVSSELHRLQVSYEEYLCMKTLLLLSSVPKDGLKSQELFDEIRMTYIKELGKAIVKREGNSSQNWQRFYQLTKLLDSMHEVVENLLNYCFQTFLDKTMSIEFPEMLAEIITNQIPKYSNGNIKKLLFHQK

[5] = one study, Kawai (1989) supra

Compound: CC#C[C@]1(O)CC[C@H]2[C@@H]3CCC4=CC(=O)CCC4=C3[C@@H](c3ccc(N(C)C)cc3)C[C@@]21C [Mifepristone, 17-beta-hydroxy-11-beta-(4-dimethyl-aminophenyl)-17-alpha(1-propynyl)-estra-4,9-dien-3-one]
- progesterone receptor antagonist activity [1]: powerful antagonist
- effect on age-associated electrophysiological changes [2]: effective at abrogating some of the age-associated electrophysiological changes
- protection against oxidative stress-induced neuronal cell death [3]: providing protection against oxidative stress-induced neuronal cell death
- GR antagonist activity [4]: powerful antagonist
- share of the daily dose excreted in the urine [5]: less than 0.5%

Compound: CC#C[C@]1(O)CC[C@H]2[C@@H]3CCC4=CC(=O)CCC4=C3[C@@H](c3ccc(OCCN(C)C)cc3)C[C@@]21C [RU009, 11-beta-(4-dimethyl-aminoethoxyphenyl)-17-alpha-(propynyl-17-beta-hydroxy-4,9-estradien-3-one)]
- GR antagonist activity [4]: shown to have GR antagonist effects
